# Test results reported in PMC7076710, “Synthesis, Identification, and Structure–Activity Relationship Analysis of GATA4 and NKX2-5 Protein–Protein Interaction Modulators” (Journal of Medicinal Chemistry, 2019).
# Read-outs that look alike come from different tables or passages of the source.
# Tests used:
# Format in all cases: cell-based
# [1] = system: rat BNP promoter activity in neonatal rat ventricular myocytes; assay: BNP promoter luciferase reporter in neonatal cardiomyocytes with or without endothelin-1
# Protocol: Five compounds (GATA4–NKX2-5 synergy inhibitors 1, 61, and 65; the synergy activator 2; and the NKX2-5 activity inhibitor 47c) were selected for studies in neonatal cardiomyocytes, which were treated with endothelin-1 (ET-1), a well-established hypertrophic agonist that activates the gene expression of both ANP and BNP (Figure 4). The myocytes were transfected with construct containing −534/+4 proximal region of rat BNP promoter with GATA4 and NKX2-5 binding sites in front of luciferase before exposure to compounds and ET-1, which was added 1 h after the compounds.
# Figure 4 Effects of the compounds 1, 2, 47c, 61, and 65 on BNP gene activation in cardiomyocytes. Neonatal cardiomyocytes were transfected with rat BNP luciferase reporter for 24 h. The cells were exposed to compounds and 1 h later to endothelin-1 (ET-1) for 24 h. The results are expressed as +SD (n = 3 or 9 for DMSO groups). ***P < 0.001 vs DMSO; **P < 0.01 vs DMSO; *P < 0.05 vs DMSO (one-way ANOVA followed by Tukey’s HSD or Welch ANOVA followed by Games–Howell); ^###P < 0.001 vs DMSO, no stimulus (independent samples Student’s t test).
# The plasmids expressing mouse GATA4 protein, pMT2-GATA4, and empty pMT2 were gifts from D. B. Wilson (Department of Pediatrics, St. Louis Children’s Hospital, St. Louis, MO).[44] The plasmids expressing mouse NKX2-5 protein, pMT2-NKX2-5, have been described earlier.[28] The luciferase reporter plasmid used in GATA4–NKX2-5 transcriptional synergy assay and NKX transcriptional assay, pGL3-3xHA, contains three high affinity binding sites for NKX2-5.[28] The luciferase reporter plasmid used in GATA transcriptional assay, NP-112, contains tandem GATA-sites and minimal promoter of rat brain natriuretic peptide (BNP) gene.[45] The pGL3-BNP luciferase reporter containing −534/+4 bp rat BNP proximal promoter described previously was used in hypertrophy assay.[46]
# The neonatal rat ventricular myocytes were isolated from 2- to 3-day-old Wistar rats, as described earlier.[29],[32] Rat pups were acquired from the experimental animal facility of the University of Helsinki with an internal use license (KEK17-012). Animals were housed in standard conditions, and their handling and all procedures were carried out in accordance with University of Helsinki institutional guidelines, which conform to the National Research Council (U.S.) Guide for the Care and Use of Laboratory Animals.[47] The cells were seeded at 50 000 cells/well in Isoplate-96 microplates (PerkinElmer, Turku, Finland) and cultured for 18–20 h with Dulbecco’s modified Eagle medium (DMEM)/F12 culture medium containing 2.5 mM L-glutamine, supplemented with 100 IU/mL penicillin–streptomycin and 10% fetal bovine serum (all from Gibco, Thermo Scientific). Transfections were carried out for 24 h in serum free media (CSFM; DMEM/F12, 2.5 mg/mL bovine serum albumin, 1 μM insulin, 2.5 mM L-glutamine, 32 nM selenium, 2.8 mM sodium pyruvate, 5.64 μg/mL transferrin, 1 nM T3, and 100 IU/mL PS) by using 100 ng of pGL3-BNP luciferase plasmid per well in a 1:3 ratio of DNA/transfection reagent (Fugene 6, Promega). […] After 24 h, the luminescence was measured as above.
# Results from cardiomyocyte experiments are expressed as mean + SD from at least three independent experiments. Data were analyzed using IBM SPSS Statistics 24 software. […] Significance between ET-1 and DMSO samples was analyzed with independent samples Student’s t test. […]
# [2] = biological target: T1, GATA4 transcriptional activity (Mus musculus, UniProt Q08369); assay: GATA4 luciferase reporter assay (tandem GATA-site reporter, COS-1 cells); details: COS-1, luciferase reporter activity relative to control
# T1 construct: expressed in transfected cells; host or cells: COS-1
# T1 sequence (Q08369 whole entry): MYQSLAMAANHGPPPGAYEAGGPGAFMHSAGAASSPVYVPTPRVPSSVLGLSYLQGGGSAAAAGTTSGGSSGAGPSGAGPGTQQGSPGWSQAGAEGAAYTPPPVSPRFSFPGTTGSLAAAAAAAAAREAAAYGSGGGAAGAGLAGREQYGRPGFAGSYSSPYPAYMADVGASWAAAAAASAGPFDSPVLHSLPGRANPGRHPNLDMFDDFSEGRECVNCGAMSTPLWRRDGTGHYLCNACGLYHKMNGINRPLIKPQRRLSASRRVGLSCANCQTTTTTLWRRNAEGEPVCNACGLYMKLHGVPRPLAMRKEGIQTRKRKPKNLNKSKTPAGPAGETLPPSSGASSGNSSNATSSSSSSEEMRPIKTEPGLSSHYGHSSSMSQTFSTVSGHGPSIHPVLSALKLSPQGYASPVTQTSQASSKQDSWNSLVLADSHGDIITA
# [3] = biological target: T2, NKX2-5 transcriptional activity (Mus musculus, UniProt P42582); assay: NKX2-5 luciferase reporter assay (3xNKE reporter, COS-1 cells); details: COS-1, luciferase reporter activity relative to control; for activity at 3 µM: read-out: NKX.3µM; for activity at 10 µM: read-out: NKX.10µM
# T2 construct: expressed in transfected cells; host or cells: COS-1
# T2 sequence (P42582 whole entry): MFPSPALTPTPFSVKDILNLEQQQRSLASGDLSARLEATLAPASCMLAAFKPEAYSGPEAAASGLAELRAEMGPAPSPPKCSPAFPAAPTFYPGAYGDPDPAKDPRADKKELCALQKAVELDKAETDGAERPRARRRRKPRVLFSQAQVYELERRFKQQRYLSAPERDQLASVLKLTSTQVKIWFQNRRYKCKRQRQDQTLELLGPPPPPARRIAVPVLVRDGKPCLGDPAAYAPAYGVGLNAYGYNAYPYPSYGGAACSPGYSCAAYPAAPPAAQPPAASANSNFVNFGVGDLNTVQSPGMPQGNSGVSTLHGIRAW
# [4] = biological target: T3, GATA4–NKX2-5 transcriptional synergy (Mus musculus, UniProt P42582+Q08369); assay: GATA4–NKX2-5 transcriptional synergy luciferase reporter assay (3xNKE reporter, COS-1 cells); details: COS-1, luciferase reporter activity relative to control
# T3 construct: expressed in transfected cells; host or cells: COS-1
# T3 sequence (Q08369 whole entry): as the sequence (Q08369 whole entry) above
# T3 sequence (P42582 whole entry): as the sequence (P42582 whole entry) above
# [5] = system: COS-1 cells; assay: LDH assay (necrosis)
# [6] = system: COS-1 cells; assay: MTT assay (cell viability); details: cell viability
Compound,activity at 3 µM ([2]; 3 µM) [%],activity at 10 µM ([2]; 10 µM) [%],activity at 3 µM ([3]; 3 µM) [%],activity at 10 µM ([3]; 10 µM) [%],activity at 3 µM ([4]; 3 µM) [%],activity at 10 µM ([4]; 10 µM) [%],LDH.1µM [5],LDH.3µM [5],LDH.10µM [5],LDH.30µM [5],MTT.1µM [6],MTT.3µM [6],MTT.10µM [6],MTT.30µM [6],further results
CCN(c1ccc(NC(=O)c2cnsc2)cc1)C(C)C [Compound 61],,,,,,,,,,,,,,,"inhibition of the ET-1 hypertrophic response, BNP gene activity (in words) ([1]; 30 μM, ET-1 added 1 h after compound): the most potent inhibitor of the hypertrophic response; effect on BNP promoter activity in cardiomyocytes (in words) ([1]; neonatal cardiomyocytes, 24 h): most strongly inhibited the BNP promoter activity; activity at 3 µM ([2]; compound 3 µM): 71.1%; activity at 10 µM ([2]; compound 10 µM): 20.4%; activity at 3 µM ([3]; compound 3 µM): 38.2%; activity at 10 µM ([3]; compound 10 µM): 10.7%; activity at 3 µM ([4]; compound 3 µM): 28.8%; activity at 10 µM ([4]; compound 10 µM): 11.6%"
CC[N+](O)(CC)c1ccc(NC(=O)c2c(-c3ccccc3)noc2C)cc1 [SI4],87.2,86.9,118,99.9,101,93.6,3.36,1.95,1,-1.21,104.81,107.68,104.23,95.62,
Cc1onc(-c2ccccc2)c1C(=O)Nc1ccc(OCc2ccccc2)cc1 [SI8],104,83.8,84.9,72.2,86.4,71.9,-0.14,2.05,-0.31,1.97,105.45,102.65,100.93,59.22,
CCN(CC)c1ccc(/C=N/c2c(-c3ccccc3)noc2C)c(O)c1 [SI44],107,74.1,99.9,53.9,84.8,53.2,2.83,1.4,-0.96,0.36,105.22,100.5,90.69,89.22,
CCCn1nnc(-c2ccccc2)c1C(=O)Nc1ccc(N(CC)CC)cc1 [SI65],113,97.4,115,91.1,104,96.1,2.51,1.17,1.55,2.48,101.13,112.84,109.58,105.89,
CN(C)c1ccc(NCc2c[nH]nc2-c2ccc(F)cc2)cc1 [SI78],83.7,49.1,70.7,43,67.2,42.2,0.7,1,-1.06,-2.54,105.6,102.53,103.53,103.47,
CCN(CC)c1ccc(NCc2c[nH]nc2-c2cc(F)cc(F)c2)cc1 [SI79],92.7,78.5,88.7,71.4,98.9,92.2,2.87,1.38,-0.15,-0.35,101.61,103.16,104.94,103.16,
"ET-1: endothelin-1, a well-established hypertrophic agonist that activates the gene expression of both ANP and BNP [reference compound]",,,,,,,,,,,,,,,"increase in BNP gene activity ([1]; neonatal cardiomyocytes, 24 h): ~3 fold"

# Further lines, with some results ahead:
activity at 3 µM ([2]; 3 µM) [%],activity at 10 µM ([2]; 10 µM) [%],activity at 3 µM ([3]; 3 µM) [%],activity at 10 µM ([3]; 10 µM) [%],activity at 3 µM ([4]; 3 µM) [%],activity at 10 µM ([4]; 10 µM) [%],Compound,LDH.1µM [5],LDH.3µM [5],LDH.10µM [5],LDH.30µM [5],MTT.1µM [6],MTT.3µM [6],MTT.10µM [6],MTT.30µM [6],further results
92.3,61.8,75.3,60.7,62.4,52.7,CCN(CC)c1ccc(NC(=O)c2ccnn2-c2ccccc2)cc1 [SI88],2.08,-0.13,0.07,-1.27,105.89,89.83,83.67,88.35,
103,81.8,101,89,80.7,93.5,CCN(CC)c1ccc(NC(=O)c2c[nH]nc2-c2ccccc2)cc1 [SI89],2.32,1.68,1.11,-1.15,100.37,105.87,100.53,96.92,
85.3,76.5,88,65.2,90.6,72.1,"COc1ccc(-c2cc(N)nn2C(=O)c2c(-c3ccccc3)noc2C)cc1 [SI137, [3-Amino-5-(4-methoxyphenyl)-1H-pyrazol-1-yl] (5-methyl-3-phenylisoxazol-4-yl) methanone]",3.49,2.98,0.2,-2.71,100.57,105.12,104.9,96.15,
